Data: ChEMBL document CHEMBL4507282, “Data for DCP probe BI-1950” (2021)

Legend:
[1] = test system: Tyrosine-protein kinase ABL1 (Homo sapiens), P00519 [H396P]; settings: Compound concentration 1000.0 nM
[2] = test system: Tyrosine-protein kinase ABL1 (Homo sapiens), P00519 [Q252H]; settings: Compound concentration 1000.0 nM
[3] = target: RAC-gamma serine/threonine-protein kinase (Homo sapiens) (UniProt Q9Y243); settings: Compound concentration 1000.0 nM
[4] = target: Aurora kinase B (Homo sapiens) (UniProt Q96GD4); settings: Compound concentration 1000.0 nM
[5] = target: Calcium/calmodulin-dependent protein kinase type 1 (Homo sapiens) (UniProt Q14012); settings: Compound concentration 1000.0 nM
Calcium/calmodulin-dependent protein kinase type 1 (Homo sapiens), sequence (Q14012 whole entry, looked up): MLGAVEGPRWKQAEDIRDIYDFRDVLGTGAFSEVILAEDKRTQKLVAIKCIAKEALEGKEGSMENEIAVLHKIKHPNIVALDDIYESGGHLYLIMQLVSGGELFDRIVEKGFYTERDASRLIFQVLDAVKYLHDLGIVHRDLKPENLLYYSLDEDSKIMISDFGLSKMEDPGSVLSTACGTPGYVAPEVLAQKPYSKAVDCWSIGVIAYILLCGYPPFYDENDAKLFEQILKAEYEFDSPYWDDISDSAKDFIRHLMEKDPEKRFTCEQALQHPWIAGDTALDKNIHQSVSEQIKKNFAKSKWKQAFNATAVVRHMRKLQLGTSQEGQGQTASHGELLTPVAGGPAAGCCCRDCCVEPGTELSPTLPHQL

[6] = target: Calcium/calmodulin-dependent protein kinase type II subunit alpha (Homo sapiens) (UniProt Q9UQM7); settings: Compound concentration 1000.0 nM
[7] = target: Calcium/calmodulin-dependent protein kinase type II subunit delta (Homo sapiens) (UniProt Q13557); settings: Compound concentration 1000.0 nM
[8] = target: Cyclin-dependent kinase 13 (Homo sapiens) (UniProt Q14004); settings: Compound concentration 1000.0 nM
[9] = target: Casein kinase I isoform epsilon (Homo sapiens) (UniProt P49674); settings: Compound concentration 1000.0 nM
[10] = target: Myotonin-protein kinase (Homo sapiens) (UniProt Q09013); settings: Compound concentration 1000.0 nM
[11] = target: Serine/threonine-protein kinase 17B (Homo sapiens) (UniProt O94768); settings: Compound concentration 1000.0 nM
Serine/threonine-protein kinase 17B (Homo sapiens), sequence (O94768 whole entry): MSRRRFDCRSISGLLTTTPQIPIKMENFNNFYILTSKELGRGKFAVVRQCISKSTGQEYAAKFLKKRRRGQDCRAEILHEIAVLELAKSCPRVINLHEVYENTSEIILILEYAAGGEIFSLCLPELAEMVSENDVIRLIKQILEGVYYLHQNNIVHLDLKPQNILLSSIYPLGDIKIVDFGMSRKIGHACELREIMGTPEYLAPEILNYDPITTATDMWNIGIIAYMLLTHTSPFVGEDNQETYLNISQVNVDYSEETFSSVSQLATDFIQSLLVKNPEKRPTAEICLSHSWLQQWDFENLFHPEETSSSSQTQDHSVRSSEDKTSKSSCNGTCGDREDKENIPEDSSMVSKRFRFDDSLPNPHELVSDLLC

[12] = target: Ephrin type-B receptor 2 (Homo sapiens) (UniProt P29323); settings: Compound concentration 1000.0 nM
[13] = target: Ephrin type-B receptor 6 (Homo sapiens) (UniProt O15197); settings: Compound concentration 1000.0 nM
[14] = target: Receptor tyrosine-protein kinase erbB-2 (Homo sapiens) (UniProt P04626); settings: Compound concentration 1000.0 nM
[15] = target: Vascular endothelial growth factor receptor 1 (Homo sapiens) (UniProt P17948); settings: Compound concentration 1000.0 nM
[16] = test system: eIF-2-alpha kinase GCN2 (Homo sapiens), Q9P2K8 [S808G]; settings: Compound concentration 1000.0 nM
[17] = target: Glycogen synthase kinase-3 beta (Homo sapiens) (UniProt P49841); settings: Compound concentration 1000.0 nM
[18] = target: Tyrosine-protein kinase JAK2 (Homo sapiens) (UniProt O60674); settings: Compound concentration 1000.0 nM
[19] = target: Tyrosine-protein kinase JAK3 (Homo sapiens) (UniProt P52333); settings: Compound concentration 1000.0 nM
Tyrosine-protein kinase JAK3 (Homo sapiens), sequence (P52333 whole entry): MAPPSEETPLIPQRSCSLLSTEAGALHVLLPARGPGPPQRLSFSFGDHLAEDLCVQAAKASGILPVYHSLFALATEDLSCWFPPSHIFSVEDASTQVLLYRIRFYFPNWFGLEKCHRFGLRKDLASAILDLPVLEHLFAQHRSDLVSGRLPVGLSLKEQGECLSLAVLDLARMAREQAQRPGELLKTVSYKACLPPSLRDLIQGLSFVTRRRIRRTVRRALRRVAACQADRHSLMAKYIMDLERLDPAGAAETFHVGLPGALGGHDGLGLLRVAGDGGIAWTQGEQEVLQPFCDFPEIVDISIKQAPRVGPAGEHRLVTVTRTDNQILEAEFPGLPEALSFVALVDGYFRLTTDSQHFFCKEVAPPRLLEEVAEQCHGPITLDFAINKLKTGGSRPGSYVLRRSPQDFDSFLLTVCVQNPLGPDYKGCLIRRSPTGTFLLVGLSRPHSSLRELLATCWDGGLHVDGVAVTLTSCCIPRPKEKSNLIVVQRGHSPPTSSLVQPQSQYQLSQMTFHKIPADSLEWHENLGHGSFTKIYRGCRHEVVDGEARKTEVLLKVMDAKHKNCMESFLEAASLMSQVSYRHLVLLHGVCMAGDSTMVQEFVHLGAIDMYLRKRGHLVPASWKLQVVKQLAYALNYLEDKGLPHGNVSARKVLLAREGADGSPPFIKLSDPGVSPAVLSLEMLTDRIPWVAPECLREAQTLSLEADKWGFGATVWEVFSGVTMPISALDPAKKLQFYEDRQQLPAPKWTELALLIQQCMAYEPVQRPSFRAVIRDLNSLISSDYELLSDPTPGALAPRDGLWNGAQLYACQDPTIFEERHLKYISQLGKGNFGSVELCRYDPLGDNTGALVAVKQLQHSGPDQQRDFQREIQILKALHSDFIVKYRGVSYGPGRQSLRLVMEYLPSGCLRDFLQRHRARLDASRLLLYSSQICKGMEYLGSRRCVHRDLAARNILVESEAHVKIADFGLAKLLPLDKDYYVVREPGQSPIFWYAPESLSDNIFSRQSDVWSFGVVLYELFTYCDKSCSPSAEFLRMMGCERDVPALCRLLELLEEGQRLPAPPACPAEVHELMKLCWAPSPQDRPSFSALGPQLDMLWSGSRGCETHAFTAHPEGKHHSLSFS

[20] = test system: Mast/stem cell growth factor receptor Kit (Homo sapiens), P10721 [D816H]; settings: Compound concentration 1000.0 nM
Mast/stem cell growth factor receptor Kit (Homo sapiens), P10721 [D816H], sequence (P10721 whole entry D816H): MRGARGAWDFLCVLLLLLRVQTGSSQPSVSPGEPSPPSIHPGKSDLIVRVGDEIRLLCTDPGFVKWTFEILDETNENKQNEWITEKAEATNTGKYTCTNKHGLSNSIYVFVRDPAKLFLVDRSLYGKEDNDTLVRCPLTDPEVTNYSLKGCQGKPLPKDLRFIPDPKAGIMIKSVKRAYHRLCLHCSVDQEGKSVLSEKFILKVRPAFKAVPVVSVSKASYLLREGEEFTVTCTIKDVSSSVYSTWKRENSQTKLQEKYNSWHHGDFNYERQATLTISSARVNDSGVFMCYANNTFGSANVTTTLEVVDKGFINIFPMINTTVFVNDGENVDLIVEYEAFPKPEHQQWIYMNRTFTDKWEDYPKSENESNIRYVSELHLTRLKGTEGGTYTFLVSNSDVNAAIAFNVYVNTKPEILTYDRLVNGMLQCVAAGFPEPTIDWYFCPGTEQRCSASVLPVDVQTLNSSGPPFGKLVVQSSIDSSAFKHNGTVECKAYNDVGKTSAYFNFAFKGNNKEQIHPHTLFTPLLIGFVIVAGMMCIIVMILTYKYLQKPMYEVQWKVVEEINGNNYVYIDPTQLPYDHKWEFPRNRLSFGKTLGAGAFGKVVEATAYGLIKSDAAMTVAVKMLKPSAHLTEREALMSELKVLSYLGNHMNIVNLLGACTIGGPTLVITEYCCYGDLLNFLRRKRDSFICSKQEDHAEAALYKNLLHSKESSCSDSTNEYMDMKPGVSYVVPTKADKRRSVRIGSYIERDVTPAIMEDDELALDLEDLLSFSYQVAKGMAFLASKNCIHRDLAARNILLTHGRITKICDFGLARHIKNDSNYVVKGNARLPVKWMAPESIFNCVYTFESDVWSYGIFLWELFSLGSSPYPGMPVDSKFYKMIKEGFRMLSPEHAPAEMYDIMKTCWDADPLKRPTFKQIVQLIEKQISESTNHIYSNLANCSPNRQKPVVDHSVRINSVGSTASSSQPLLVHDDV

[21] = test system: Mast/stem cell growth factor receptor Kit (Homo sapiens), P10721 [V559D]; settings: Compound concentration 1000.0 nM
Mast/stem cell growth factor receptor Kit (Homo sapiens), P10721 [V559D], sequence (P10721 whole entry V559D): as the sequence (P10721 whole entry D816H) above, with V559D, H816D counted along it

[22] = target: Tyrosine-protein kinase Lck (Homo sapiens) (UniProt P06239); settings: Compound concentration 1000.0 nM
[23] = target: Hepatocyte growth factor receptor (Homo sapiens) (UniProt P08581); settings: Compound concentration 1000.0 nM
[24] = target: Serine/threonine-protein kinase 3 (Homo sapiens) (UniProt Q13188); settings: Compound concentration 1000.0 nM
[25] = target: Serine/threonine-protein kinase Nek7 (Homo sapiens) (UniProt Q8TDX7); settings: Compound concentration 1000.0 nM
Serine/threonine-protein kinase Nek7 (Homo sapiens), sequence (Q8TDX7 whole entry, looked up): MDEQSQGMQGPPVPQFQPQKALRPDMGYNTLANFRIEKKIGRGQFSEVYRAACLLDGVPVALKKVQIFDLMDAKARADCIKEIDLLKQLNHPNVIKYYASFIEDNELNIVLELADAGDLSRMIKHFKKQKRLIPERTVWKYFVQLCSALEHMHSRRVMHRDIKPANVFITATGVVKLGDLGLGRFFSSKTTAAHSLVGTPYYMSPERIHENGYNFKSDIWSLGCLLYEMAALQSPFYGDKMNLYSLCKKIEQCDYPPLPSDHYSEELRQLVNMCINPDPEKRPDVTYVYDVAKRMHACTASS

[26] = target: 3-phosphoinositide-dependent protein kinase 1 (Homo sapiens) (UniProt O15530); settings: Compound concentration 1000.0 nM
[27] = target: Cyclin-dependent kinase 14 (Homo sapiens) (UniProt O94921); settings: Compound concentration 1000.0 nM
[28] = target: Phosphorylase b kinase regulatory subunit alpha, liver isoform (Homo sapiens) (UniProt P46019); settings: Compound concentration 1000.0 nM
[29] = target: Phosphatidylinositol 4,5-bisphosphate 3-kinase catalytic subunit delta isoform (Homo sapiens) (UniProt O00329); settings: Compound concentration 1000.0 nM
[30] = target: Phosphatidylinositol 4-kinase beta (Homo sapiens) (UniProt Q9UBF8); settings: Compound concentration 1000.0 nM
Phosphatidylinositol 4-kinase beta (Homo sapiens), sequence (Q9UBF8 2-816 limits assumed): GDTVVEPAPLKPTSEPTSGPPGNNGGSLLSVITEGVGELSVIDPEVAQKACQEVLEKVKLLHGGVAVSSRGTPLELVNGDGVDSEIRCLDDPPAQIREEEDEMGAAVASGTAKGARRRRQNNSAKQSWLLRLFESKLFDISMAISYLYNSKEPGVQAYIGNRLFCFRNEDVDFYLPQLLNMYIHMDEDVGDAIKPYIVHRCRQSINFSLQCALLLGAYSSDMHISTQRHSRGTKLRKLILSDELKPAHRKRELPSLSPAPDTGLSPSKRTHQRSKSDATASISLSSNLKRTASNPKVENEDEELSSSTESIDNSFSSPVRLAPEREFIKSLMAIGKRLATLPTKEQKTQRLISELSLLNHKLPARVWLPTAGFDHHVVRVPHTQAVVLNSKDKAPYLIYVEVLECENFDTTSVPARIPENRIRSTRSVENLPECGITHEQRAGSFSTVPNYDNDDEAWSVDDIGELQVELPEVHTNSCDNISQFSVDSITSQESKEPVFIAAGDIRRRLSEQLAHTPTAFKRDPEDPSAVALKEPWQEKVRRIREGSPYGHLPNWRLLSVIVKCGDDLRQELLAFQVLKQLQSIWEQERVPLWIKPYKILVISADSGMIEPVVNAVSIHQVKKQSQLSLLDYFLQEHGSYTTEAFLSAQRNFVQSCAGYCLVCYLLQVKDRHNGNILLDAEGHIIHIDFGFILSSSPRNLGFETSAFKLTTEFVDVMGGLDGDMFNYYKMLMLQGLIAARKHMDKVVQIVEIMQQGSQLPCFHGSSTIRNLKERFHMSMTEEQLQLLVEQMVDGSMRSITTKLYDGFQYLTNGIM

[31] = target: cAMP-dependent protein kinase catalytic subunit alpha (Homo sapiens) (UniProt P17612); settings: Compound concentration 1000.0 nM
[32] = target: Serine/threonine-protein kinase D2 (Homo sapiens) (UniProt Q9BZL6); settings: Compound concentration 1000.0 nM
[33] = target: Interferon-induced, double-stranded RNA-activated protein kinase (Homo sapiens) (UniProt P19525); settings: Compound concentration 1000.0 nM
[34] = target: Protein-tyrosine kinase 2-beta (Homo sapiens) (UniProt Q14289); settings: Compound concentration 1000.0 nM
[35] = target: Receptor-interacting serine/threonine-protein kinase 1 (Homo sapiens) (UniProt Q13546); settings: Compound concentration 1000.0 nM
[36] = target: Dual serine/threonine and tyrosine protein kinase (Homo sapiens) (UniProt Q6XUX3); settings: Compound concentration 1000.0 nM
[37] = target: Proto-oncogene tyrosine-protein kinase ROS (Homo sapiens) (UniProt P08922); settings: Compound concentration 1000.0 nM
[38] = target: Ribosomal protein S6 kinase alpha-3 (Homo sapiens) (UniProt P51812); settings: Compound concentration 1000.0 nM
[39] = target: Serine/threonine-protein kinase 33 (Homo sapiens) (UniProt Q9BYT3); settings: Compound concentration 1000.0 nM
[40] = target: Testis-specific serine/threonine-protein kinase 3 (Homo sapiens) (UniProt Q96PN8); settings: Compound concentration 1000.0 nM
[41] = target: Dual specificity protein kinase TTK (Homo sapiens) (UniProt P33981); settings: Compound concentration 1000.0 nM
[42] = target: Serine/threonine-protein kinase ULK1 (Homo sapiens) (UniProt O75385); settings: Compound concentration 1000.0 nM
Serine/threonine-protein kinase ULK1 (Homo sapiens), sequence (O75385 whole entry): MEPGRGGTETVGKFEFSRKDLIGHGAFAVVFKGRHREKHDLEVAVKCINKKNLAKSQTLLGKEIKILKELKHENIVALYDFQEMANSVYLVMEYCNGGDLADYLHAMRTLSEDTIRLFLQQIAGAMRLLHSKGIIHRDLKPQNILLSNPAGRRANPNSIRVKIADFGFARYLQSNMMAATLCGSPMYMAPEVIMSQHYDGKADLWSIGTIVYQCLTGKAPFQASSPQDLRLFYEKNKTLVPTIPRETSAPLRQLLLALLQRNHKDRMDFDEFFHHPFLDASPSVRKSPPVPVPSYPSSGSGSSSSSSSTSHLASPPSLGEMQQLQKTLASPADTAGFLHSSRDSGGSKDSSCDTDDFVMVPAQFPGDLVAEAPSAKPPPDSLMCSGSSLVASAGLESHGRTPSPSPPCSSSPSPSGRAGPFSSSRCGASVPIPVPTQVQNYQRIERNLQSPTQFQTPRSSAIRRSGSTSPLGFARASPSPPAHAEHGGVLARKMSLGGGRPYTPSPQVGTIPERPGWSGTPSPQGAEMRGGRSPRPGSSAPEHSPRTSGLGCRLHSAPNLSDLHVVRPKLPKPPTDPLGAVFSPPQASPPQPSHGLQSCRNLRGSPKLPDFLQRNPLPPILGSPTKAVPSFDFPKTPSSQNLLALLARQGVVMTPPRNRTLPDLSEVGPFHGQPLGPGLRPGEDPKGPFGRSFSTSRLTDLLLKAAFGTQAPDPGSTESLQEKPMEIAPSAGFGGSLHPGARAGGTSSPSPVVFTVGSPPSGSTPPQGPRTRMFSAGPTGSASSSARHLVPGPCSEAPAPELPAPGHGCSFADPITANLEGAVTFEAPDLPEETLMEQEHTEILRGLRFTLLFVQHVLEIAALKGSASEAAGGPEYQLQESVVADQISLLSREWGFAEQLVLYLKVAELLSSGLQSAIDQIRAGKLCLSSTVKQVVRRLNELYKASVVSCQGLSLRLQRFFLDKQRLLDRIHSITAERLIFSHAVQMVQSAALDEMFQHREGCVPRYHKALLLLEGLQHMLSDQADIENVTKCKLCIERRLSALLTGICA

[43] = target: Serine/threonine-protein kinase ULK3 (Homo sapiens) (UniProt Q6PHR2); settings: Compound concentration 1000.0 nM
[44] = target: Sodium-dependent serotonin transporter (Homo sapiens) (UniProt P31645); settings: Compound concentration 10.0 uM
[45] = target: Alpha-1A adrenergic receptor (Homo sapiens) (UniProt P35348); settings: Compound concentration 10.0 uM

How did the residual activity [1] turn out when `C[C@H](NC(=O)c1cnc2n1[C@](C)(Cc1ccc(C#N)cc1)C(=O)N2c1cc(Cl)c(F)c(Cl)c1)C(=O)NC1(c2ccccn2)CC1` [BI 1950] was run?
The residual activity was 91%.

What about the residual activity [2] of the same compound?
Its residual activity is 90%.

And the residual activity [3]?
The residual activity was 60%.

And the residual activity [4]?
The residual activity was 100%.

And the residual activity [5]?
Its residual activity is 96%.

And the residual activity [6]?
Its residual activity is 96%.

And the residual activity [7]?
Its residual activity is 100%.

And the residual activity [8]?
Its residual activity is 100%.

And the residual activity [9]?
Its residual activity is 82%.

And the residual activity [10]?
Its residual activity is 67%.

What about the residual activity [11] of the same compound?
The residual activity was 100%.

What about the residual activity [12] of the same compound?
Its residual activity is 100%.

What about the residual activity [13] of the same compound?
The residual activity was 100%.

And the residual activity [14]?
Its residual activity is 100%.

And the residual activity [15]?
The residual activity was 100%.

And the residual activity [16]?
The residual activity was 100%.

What about the residual activity [17] of the same compound?
Its residual activity is 100%.

What about the residual activity [18] of the same compound?
Its residual activity is 100%.

What about the residual activity [19] of the same compound?
The residual activity was 100%.

And the residual activity [20]?
The residual activity was 100%.

What about the residual activity [21] of the same compound?
The residual activity was 91%.

And the residual activity [22]?
The residual activity was 100%.

And the residual activity [23]?
The residual activity was 100%.

What about the residual activity [24] of the same compound?
The residual activity was 100%.

What about the residual activity [25] of the same compound?
The residual activity was 100%.

And the residual activity [26]?
The residual activity was 100%.

What about the residual activity [27] of the same compound?
Its residual activity is 100%.

And the residual activity [28]?
Its residual activity is 100%.

And the residual activity [29]?
The residual activity was 95%.

And the residual activity [30]?
The residual activity was 100%.

What about the residual activity [31] of the same compound?
The residual activity was 100%.

And the residual activity [32]?
Its residual activity is 100%.

And the residual activity [33]?
Its residual activity is 34%.

And the residual activity [34]?
Its residual activity is 100%.

And the residual activity [35]?
Its residual activity is 100%.

And the residual activity [36]?
The residual activity was 87%.

And the residual activity [37]?
The residual activity was 100%.

What about the residual activity [38] of the same compound?
Its residual activity is 100%.

And the residual activity [39]?
The residual activity was 88%.

And the residual activity [40]?
Its residual activity is 100%.

What about the residual activity [41] of the same compound?
The residual activity was 100%.

And the residual activity [42]?
The residual activity was 100%.

What about the residual activity [43] of the same compound?
Its residual activity is 100%.

What about the inhibition [44] of the same compound?
The inhibition was -4.33%.

What about the inhibition [45] of the same compound?
Its inhibition is -8.89%.

`C[C@@]1(Cc2ccc(C#N)cc2)C(=O)N(c2cc(Cl)cc(Cl)c2)c2ncc(C(=O)NC3(c4nc(C5CCC5)no4)CC3)n21` [BI 9446] was tested. Which residual activity [1] did it give?
Its residual activity is 96%.

What about the residual activity [2] of the same compound?
The residual activity was 89%.

And the residual activity [3]?
The residual activity was 100%.

What about the residual activity [4] of the same compound?
Its residual activity is 100%.

And the residual activity [5]?
The residual activity was 93%.

And the residual activity [6]?
Its residual activity is 89%.

What about the residual activity [7] of the same compound?
Its residual activity is 100%.

What about the residual activity [8] of the same compound?
Its residual activity is 100%.

And the residual activity [9]?
The residual activity was 100%.

And the residual activity [10]?
The residual activity was 100%.

What about the residual activity [11] of the same compound?
The residual activity was 100%.

What about the residual activity [12] of the same compound?
The residual activity was 94%.

And the residual activity [13]?
Its residual activity is 100%.

And the residual activity [14]?
Its residual activity is 100%.

What about the residual activity [15] of the same compound?
The residual activity was 99%.

What about the residual activity [16] of the same compound?
The residual activity was 100%.

What about the residual activity [17] of the same compound?
The residual activity was 100%.

And the residual activity [18]?
Its residual activity is 100%.

And the residual activity [19]?
The residual activity was 100%.

What about the residual activity [20] of the same compound?
The residual activity was 100%.

And the residual activity [21]?
The residual activity was 99%.

And the residual activity [22]?
The residual activity was 100%.

What about the residual activity [23] of the same compound?
The residual activity was 100%.

And the residual activity [24]?
Its residual activity is 100%.

What about the residual activity [25] of the same compound?
Its residual activity is 100%.

And the residual activity [26]?
The residual activity was 100%.

And the residual activity [27]?
Its residual activity is 100%.

What about the residual activity [28] of the same compound?
The residual activity was 100%.

And the residual activity [29]?
Its residual activity is 73%.

And the residual activity [30]?
Its residual activity is 100%.

What about the residual activity [31] of the same compound?
Its residual activity is 100%.

What about the residual activity [32] of the same compound?
Its residual activity is 100%.

What about the residual activity [33] of the same compound?
The residual activity was 56%.

What about the residual activity [34] of the same compound?
The residual activity was 100%.

And the residual activity [35]?
The residual activity was 100%.

And the residual activity [36]?
The residual activity was 95%.

What about the residual activity [37] of the same compound?
Its residual activity is 100%.

What about the residual activity [38] of the same compound?
Its residual activity is 100%.

What about the residual activity [39] of the same compound?
Its residual activity is 100%.

And the residual activity [40]?
Its residual activity is 100%.

What about the residual activity [41] of the same compound?
Its residual activity is 94%.

And the residual activity [42]?
The residual activity was 100%.

What about the residual activity [43] of the same compound?
The residual activity was 100%.

And the inhibition [44]?
The inhibition was 5.35%.

And the inhibition [45]?
The inhibition was -1.65%.
